Data from patent US6380181B1, “Synthetic catechol derivatives, method for production and use thereof” (priority 1996, dated 2002).
In brackets after ≈: the same amount, converted by molar mass. Read-outs that look alike come from different tables or passages of the source.

Assays:
Type in all cases: cell-based
[1] = test system: Pseudomonas aeruginosa SG 137 (carbenicillin-resistant); assay: Agar diffusion test; details: concentration 100 μg/ml, P. aeruginosa SG 137
[2] = test system: Pseudomonas aeruginosa KW 799 WT (wild type); assay: Agar diffusion test; details: concentration 100 μg/ml, P. aeruginosa KW799/WT
[3] = test system: Pseudomonas aeruginosa KW 799/61 (penetration mutant); details: concentration 100 μg/ml; P. aeruginosa KW799/61
[4] = test system: Pseudomonas aeruginosa ATCC 27853 (wild type); assay: Agar diffusion test; details: concentration 100 μg/ml; P. aeruginosa ATCC 27853
[5] = test system: Pseudomonas aeruginosa ATCC 9027 (wild type); assay: Agar diffusion test; details: concentration 100 μg/ml; P. aeruginosa ATCC 9027
[6] = test system: Pseudomonas aeruginosa NCTC 10662; assay: Agar diffusion test; details: concentration 100 μg/ml; P. aeruginosa NCTC 10662
[7] = test system: Pseudomonas aeruginosa NCTC 10701; assay: Agar diffusion test; details: concentration 100 μg/ml; P. aeruginosa NCTC 10701
[8] = test system: Pseudomonas aeruginosa NPS1 (plasmid-coded β-lactamase); details: concentration 100 μg/ml; P. aeruginosa NPS 1
[9] = test system: Pseudomonas aeruginosa Oxa6 (plasmid-coded β-lactamase); details: concentration 100 μg/ml; P. aeruginosa OXA 6
[10] = test system: E. coli DC2 (penetration mutant); details: concentration 100 μg/ml
E. coli DC0 (wild type) = assay: Agar diffusion test; details: concentration 100 μg/ml
[11] = test system: Klebsiella pneumoniae SG 117; assay: Agar diffusion test; details: concentration 100 μg/ml
[12] = test system: Stenotrophomonas maltophilia GN 12873; assay: Agar diffusion test; details: concentration 100 μg/ml
[13] = test system: Stenotrophomonas maltophilia IMET 10402; assay: Agar diffusion test; details: concentration 100 μg/ml
[14] = test system: Salmonella gallinarum ATCC 9184; details: concentration 100 μg/ml, Salmonella galinarum ATCC 9184
E. coli ATCC 25922 = assay: Microdilution test (MIC)
Protocol: (§1) The minimum inhibiting concentrations (MICs) were determined for the following bacterial strains: Pseudomonas aeruginosa NCTC 10701, NCTC 10662, SG 137, ATCC 27853, KW 799 WT and KW 799/61, E. coli DCO, DC2 and ATCC 25922, Serratia marcescens SG 621; Salmonella gallinarum ATCC 9184, Klebsiella pneumoniae ATCC 10031 and SG 117.

[15] = test system: Klebsiella pneumoniae ATCC 10031; assay: Microdilution test (MIC)
Protocol: as §1

[16] = test system: Pseudomonas aeruginosa ATCC 27853; assay: Microdilution test (MIC); details: P. aeruginosa ATCC 27853
Protocol: as §1

[17] = test system: Pseudomonas aeruginosa NCTC 10662; assay: Microdilution test (MIC); details: P. aeruginosa NCTC 10662
Protocol: as §1

[18] = test system: Pseudomonas aeruginosa NCTC 10701; assay: Microdilution test (MIC); details: Pseudomonas aeruginosa, NCTC10701; P. aeruginosa NCTC 10701
Protocol: as §1

[19] = test system: Pseudomonas aeruginosa SG 137; assay: Microdilution test (MIC); details: P. aeruginosa SG 137
Protocol: as §1

[20] = test system: Serratia marcescens SG 621; assay: Microdilution test (MIC)
Protocol: as §1

E. coli DC0 = assay: Microdilution test (MIC); details: E. coli DC0
Protocol: as §1
(§2) With the test germs KW 799/WT and /61 of Pseudomonas and DCO and DC2 of E. coli, the effect of improved penetration capacity on the efficacy of the substances was investigated.

[21] = test system: Pseudomonas aeruginosa KW 799 WT; assay: Microdilution test (MIC); details: P. aeruginosa KW 799/WT
Protocol: as §1, §2

[22] = test system: Pseudomonas aeruginosa KW 799/61; assay: Microdilution test (MIC)
Protocol: as §1, §2

E. coli DC2 = assay: microbe, parasite or virus in culture
Protocol: as §1, §2

[23] = test system: Salmonella gallinarum ATCC 9184; assay: microbe, parasite or virus in culture; details: Salmonella enterica; Salmonella gallinarum ATCC9184; read-out: MIC values, microdilution test
Protocol: as §1

[24] = test system: Stenotrophomonas maltophilia GN 12873; assay: Microdilution test (MIC)
E. coli mutant KB4 ompF− = test system: E. coli mutant KB4 ompF−
Excerpt: (§3) The efficacy against β-lactamase formers and against multi-resistant germs is therefore due to a new type of mechanism for overcoming the penetration resistance, by means of which the ratio of active ingredient to enzyme in the bacterial cell is influenced so that not all antibiotic molecules are inactivated before they reach their target.

E. coli mutant KB5 ompC− = test system: E. coli mutant KB5 ompC−
Excerpt: as §3

[25] = test system: E. coli mutant PLB3268 ompF++; details: E. coli mutant PLB3268 ompF++ (ompF super-expressed)
Excerpt: as §3
PLB268: ompF- was super-expressed.

[26] = test system: E. coli mutant BR185 tonB−
E. coli AB2847 tonB+ = test system: E. coli AB2847 tonB+
[27] = test system: Klebsiella pneumoniae ATCC 10031; assay: Agar diffusion test; details: concentration 100 μg/ml
[28] = Escherichia coli, read-out: MIC values, microdilution test

CC1(C)S[C@@H]2[C@H](NC(=O)[C@H](N)c3ccccc3)C(=O)N2[C@H]1C(=O)O [Ampicillin, reference compound]
inhibition spot diameter in the agar diffusion test [1]: 0 mm | inhibition spot diameter in the agar diffusion test [2]: 0 mm | inhibition spot diameter in the agar diffusion test [3]: 41 mm | inhibition spot diameter in the agar diffusion test [4]: 0 mm | inhibition spot diameter in the agar diffusion test [5]: 0 mm | inhibition spot diameter in the agar diffusion test [6]: 0 mm | inhibition spot diameter in the agar diffusion test [7]: 0 mm | inhibition spot diameter in the agar diffusion test [8]: 0 mm | inhibition spot diameter in the agar diffusion test [9]: 0 mm | inhibition spot diameter in the agar diffusion test [10]: 32 mm | inhibition spot diameter in the agar diffusion test (E. coli DC0 (wild type)): 22 mm | inhibition spot diameter in the agar diffusion test [11]: 19 mm | inhibition spot diameter in the agar diffusion test [12]: 0 mm | inhibition spot diameter in the agar diffusion test [13]: 0 mm | inhibition spot diameter in the agar diffusion test [14]: 34 mm | MIC (E. coli ATCC 25922; Escherichia coli, ATCC25922): 6.25 µg/mL (≈ 17.9 µM) | MIC ([15]; ATCC10031): 50 µg/mL (≈ 143 µM) | MIC ([16]; Pseudomonas aeruginosa, ATCC27853): > 100 µg/mL | MIC ([17]; Pseudomonas aeruginosa, NCTC10662): > 100 µg/mL | MIC [18]: > 100 µg/mL | MIC ([19]; Pseudomonas aeruginosa, SG137): > 100 µg/mL | MIC ([20]; SG621): 25 µg/mL (≈ 71.5 µM) | MIC (E. coli DC0; [28]): 6.25 µg/mL (≈ 17.9 µM) | MIC ([21]; Pseudomonas aeruginosa, KW799WT): > 100 µg/mL | MIC ([22]; Pseudomonas aeruginosa, KW799/61, P. aeruginosa KW 799/61): 0.4 µg/mL (≈ 1.14 µM) | MIC (E. coli DC2; [28]): 1.56 µg/mL (≈ 4.46 µM) | MIC [23]: 0.2 µg/mL (≈ 0.572 µM) | MIC ([24]; GN12873): > 100 µg/mL | inhibition spot diameter in agar diffusion test (E. coli mutant KB4 ompF−): 10 mm | inhibition spot diameter in agar diffusion test (E. coli mutant KB5 ompC−): 9.5 mm | inhibition spot diameter in agar diffusion test [25]: 17.5 mm

CC(=O)Oc1cccc(C(=O)Nc2ccc(C(=O)N[C@@H](C(=O)N[C@@H]3C(=O)N4[C@@H]3SC(C)(C)[C@@H]4C(=O)O)c3ccccc3)cc2)c1OC(C)=O [Substance 29]
inhibition spot diameter in the agar diffusion test [1]: 28 mm | inhibition spot diameter in the agar diffusion test [2]: 27 mm | inhibition spot diameter in the agar diffusion test [3]: 33 mm | inhibition spot diameter in the agar diffusion test [5]: 21 mm | inhibition spot diameter in the agar diffusion test [7]: 23 mm | inhibition spot diameter in the agar diffusion test [8]: 12 mm | inhibition spot diameter in the agar diffusion test [9]: 13 mm | inhibition spot diameter in the agar diffusion test [10]: 28 mm | inhibition spot diameter in the agar diffusion test (E. coli DC0 (wild type)): 22 mm | inhibition spot diameter in the agar diffusion test [11]: 15 mm | inhibition spot diameter in the agar diffusion test [12]: 19 mm | inhibition spot diameter in the agar diffusion test [13]: 23 mm | inhibition spot diameter in the agar diffusion test [14]: 22 mm | MIC values, microdilution test (E. coli ATCC 25922): 100 µg/mL (≈ 145 µM) | MIC values, microdilution test [15]: 50 µg/mL (≈ 72.6 µM) | MIC values, microdilution test [17]: 12.5 µg/mL (≈ 18.1 µM) | MIC values, microdilution test [19]: 0.78 µg/mL (≈ 1.13 µM) | MIC values, microdilution test [20]: 25 µg/mL (≈ 36.3 µM) | MIC values, microdilution test (E. coli DC0): 50 µg/mL (≈ 72.6 µM) | MIC values, microdilution test [21]: 3.12 µg/mL (≈ 4.53 µM) | MIC values, microdilution test [22]: 0.4 µg/mL (≈ 0.581 µM) | MIC values, microdilution test (E. coli DC2): 1.56 µg/mL (≈ 2.27 µM) | MIC values, microdilution test [24]: 12.5 µg/mL (≈ 18.1 µM) | inhibition spot diameter in agar diffusion test (E. coli mutant KB4 ompF−): 9.5 mm | inhibition spot diameter in agar diffusion test (E. coli mutant KB5 ompC−): 7 mm | inhibition spot diameter in agar diffusion test [25]: 14 mm | inhibition spot diameter in agar diffusion test [26]: 0 mm | inhibition spot diameter in agar diffusion test (E. coli AB2847 tonB+): 6 mm

CC(=O)Oc1cccc(C(=O)NCCCC[C@H](NC(=O)c2cccc(OC(C)=O)c2OC(C)=O)C(=O)N[C@@H](C(=O)N[C@@H]2C(=O)N3[C@@H]2SC(C)(C)[C@@H]3C(=O)O)c2ccccc2)c1OC(C)=O [Substance 31, N-[L-2,6-bis-(2,3-diacetoxybenzoylamino)-hexanoyl]-ampicillin]
inhibition spot diameter in the agar diffusion test ([1]; listed as 31): 28 mm | inhibition spot diameter in the agar diffusion test ([2]; listed as 31): 27 mm | inhibition spot diameter in the agar diffusion test [3]: 37 mm | inhibition spot diameter in the agar diffusion test ([10]; listed as 31): 33 mm | inhibition spot diameter in the agar diffusion test (E. coli DC0 (wild type); listed as 31): 27 mm | inhibition spot diameter in the agar diffusion test ([12]; listed as 31): 23 mm | inhibition spot diameter in the agar diffusion test ([14]; listed as 31): 29 mm | MIC values, microdilution test (E. coli ATCC 25922; listed as 31): 0.78 µg/mL (≈ 0.85 µM) | MIC values, microdilution test [15]: 0.4 µg/mL (≈ 0.436 µM) | MIC values, microdilution test ([17]; listed as 31): 6.25 µg/mL (≈ 6.81 µM) | MIC values, microdilution test [19]: 0.1 µg/mL (≈ 0.109 µM) | MIC values, microdilution test [20]: 25 µg/mL (≈ 27.2 µM) | MIC values, microdilution test (E. coli DC0): 12.5 µg/mL (≈ 13.6 µM) | MIC values, microdilution test [21]: 0.78 µg/mL (≈ 0.85 µM) | MIC values, microdilution test [22]: 0.2 µg/mL (≈ 0.218 µM) | MIC values, microdilution test (E. coli DC2): 0.2 µg/mL (≈ 0.218 µM) | MIC values, microdilution test ([24]; listed as 31): 0.4 µg/mL (≈ 0.436 µM)

CC(=O)OC[C@H](NC(=O)c1cccc(OC(C)=O)c1OC(C)=O)C(=O)N[C@@H](C(=O)N[C@@H]1C(=O)N2[C@@H]1SC(C)(C)[C@@H]2C(=O)O)c1ccccc1 [Substance 32, N-[L-3-Acetoxy-2-(2,3-diacetoxybenzoylamino)-propionyl]-ampicillin]
inhibition spot diameter in the agar diffusion test [1]: 16 mm | inhibition spot diameter in the agar diffusion test [2]: 25 mm | inhibition spot diameter in the agar diffusion test [3]: 32 mm | inhibition spot diameter in the agar diffusion test [10]: 28 mm | inhibition spot diameter in the agar diffusion test (E. coli DC0 (wild type)): 22 mm | inhibition spot diameter in the agar diffusion test [12]: 19 mm | inhibition spot diameter in the agar diffusion test [14]: 28 mm | MIC values, microdilution test [19]: 1.56 µg/mL (≈ 2.23 µM) | MIC values, microdilution test [20]: 25 µg/mL (≈ 35.8 µM) | MIC values, microdilution test (E. coli DC0): 12.5 µg/mL (≈ 17.9 µM) | MIC values, microdilution test [21]: 1.56 µg/mL (≈ 2.23 µM) | MIC values, microdilution test [22]: 0.4 µg/mL (≈ 0.572 µM)

COC(=O)Oc1cccc(C(=O)N(C)c2ccc(C(=O)N[C@@H](C(=O)N[C@@H]3C(=O)N4[C@@H]3SC(C)(C)[C@@H]4C(=O)O)c3ccccc3)cc2)c1OC(=O)OC [Substance Na-37, N-{4-[(2,3-di-methoxycarbonyloxy-benzoyl)-methyl-amino]-benzoyl}-ampicillin]
inhibition spot diameter in the agar diffusion test [1]: 22 mm | inhibition spot diameter in the agar diffusion test [2]: 28 mm | inhibition spot diameter in the agar diffusion test [3]: 35 mm | inhibition spot diameter in the agar diffusion test [4]: 21 mm | inhibition spot diameter in the agar diffusion test [10]: 33 mm | inhibition spot diameter in the agar diffusion test (E. coli DC0 (wild type)): 27 mm | inhibition spot diameter in the agar diffusion test [27]: 22 mm | inhibition spot diameter in the agar diffusion test [11]: 19 mm | inhibition spot diameter in the agar diffusion test [12]: 16 mm | inhibition spot diameter in the agar diffusion test [14]: 29 mm | MIC values, microdilution test (E. coli ATCC 25922): 3.12 µg/mL (≈ 4.25 µM) | MIC values, microdilution test [15]: 3.12 µg/mL (≈ 4.25 µM) | MIC values, microdilution test [16]: 3.12 µg/mL (≈ 4.25 µM) | MIC values, microdilution test [17]: 12.5 µg/mL (≈ 17 µM) | MIC values, microdilution test [19]: 0.4 µg/mL (≈ 0.544 µM) | MIC values, microdilution test [24]: 6.25 µg/mL (≈ 8.51 µM)
